Measured values reported in ChEMBL document CHEMBL1201862, “PubChem BioAssay data set” (2004).
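These data come from cells grown in 96-well plates and exposed to compound for 48 hours at five concentrations. Abbreviation: GI50, concentration required for 50% inhibition of growth.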 Calls of active or inactive are those of the source. Rule as the data show it: active = GI50 up to about 1.1 µM and inactive = higher. Where a SMILES comes first, the peptide text is derived from it. The star is where a group is joined. Boc = CC(C)(C)OC(=O)*

How the values were obtained:
Assay in all cases: NCI anticancer screen, dose series, 48 h
[1] = test system: EKVX
[2] = test system: HCC 2998
[3] = test system: HCT-15
[4] = test system: HOP-62
[5] = test system: HOP-92
[6] = test system: IGROV-1
[7] = test system: LOX IMVI
[8] = test system: M14
[9] = test system: MDA-MB-435
[10] = test system: NCI-H23
[11] = test system: NCI-H460
[12] = test system: OVCAR-3
[13] = test system: OVCAR-5
[14] = test system: OVCAR-8
[15] = test system: PC-3
[16] = test system: SK-MEL-2
[17] = test system: SNB-19
[18] = test system: UO-31
[19] = test system: SF-268
[20] = test system: HL-60

SMILES | GI50 [1] | GI50 [2] | GI50 [3] [µM] | GI50 [4] | GI50 [5] | GI50 [6] | GI50 [7] | GI50 [8] | GI50 [9] | GI50 [10] | GI50 [11] | GI50 [12] | GI50 [13] | GI50 [14] | GI50 [15] | GI50 [16] | GI50 [17] | GI50 [18] | GI50 [19] | GI50 [20]
CCOC(=O)c1cn(-c2ccc(Cl)cc2)c(=O)n2c1nc1ccccc12 | > 100 µM (inactive) | > 100 µM (inactive) | > 100 | > 100 µM (inactive) | > 100 µM (inactive) | > 100 µM (inactive) | > 100 µM (inactive) | > 100 µM (inactive) | > 100 µM (inactive) | > 100 µM (inactive) | > 100 µM (inactive) | > 100 µM (inactive) | > 100 µM (inactive) | > 100 µM (inactive) | > 100 µM (inactive) | > 100 µM (inactive) | > 100 µM (inactive) | > 100 µM (inactive) |  | 
COc1ccc(-c2nc(N)c(C#N)c3c2CCS(=O)(=O)c2ccc(C)cc2-3)cc1OC |  | 27.6 µM (inactive) | 16.1 | 33.2 µM (inactive) | 38.5 µM (inactive) | 31.6 µM (inactive) | 48.3 µM (inactive) | 28.4 µM (inactive) | 15.1 µM (inactive) | 31.5 µM (inactive) | 28.2 µM (inactive) | 39.6 µM (inactive) | 19.6 µM (inactive) | 74.3 µM (inactive) | 11.9 µM (inactive) | 16.2 µM (inactive) | 27.5 µM (inactive) | 30.8 µM (inactive) | 51.2 µM (inactive) | 
O=C(NNC(=S)Nc1ccccc1)c1cc(-c2ccccc2)nc2ccccc12 |  | 15.5 µM (inactive) | 13.9 | 15.7 µM (inactive) | 15.6 µM (inactive) | 26.7 µM (inactive) |  | 14.9 µM (inactive) | 16.5 µM (inactive) | 16.3 µM (inactive) | 20.7 µM (inactive) | 11.1 µM (inactive) | 18.1 µM (inactive) | 22.3 µM (inactive) | 18.6 µM (inactive) | 11.1 µM (inactive) | 22.8 µM (inactive) | 15.2 µM (inactive) | 22.9 µM (inactive) | 
CCc1n[nH]c(=O)n1N1C(=O)C2CC=CCC2C1=O (centres undefined) | > 100 µM (inactive) | > 100 µM (inactive) | > 100 | > 100 µM (inactive) | > 100 µM (inactive) | > 100 µM (inactive) | > 100 µM (inactive) | > 100 µM (inactive) | > 100 µM (inactive) | > 100 µM (inactive) | > 100 µM (inactive) | > 100 µM (inactive) | > 100 µM (inactive) | > 100 µM (inactive) | > 100 µM (inactive) | > 100 µM (inactive) | > 100 µM (inactive) | > 100 µM (inactive) | > 100 µM (inactive) | 
O=C1CSC2=NCC3(NN12)c1ccccc1-c1ccccc13 | > 10 µM (inactive) | > 10 µM (inactive) | > 10 | > 10 µM (inactive) | > 10 µM (inactive) | > 10 µM (inactive) | > 10 µM (inactive) | > 10 µM (inactive) | > 10 µM (inactive) | > 10 µM (inactive) | > 10 µM (inactive) |  |  | > 10 µM (inactive) | > 10 µM (inactive) |  | > 10 µM (inactive) | > 10 µM (inactive) | > 10 µM (inactive) | > 10 µM (inactive)
CC(C)(C)OC(=O)NCC(=O)NCC(=O)NCC(=O)NCC(=O)O (Boc-GGGG-OH) | > 100 µM (inactive) | > 100 µM (inactive) | > 100 | > 100 µM (inactive) | > 100 µM (inactive) | > 100 µM (inactive) | > 100 µM (inactive) | > 100 µM (inactive) | > 100 µM (inactive) | > 100 µM (inactive) | > 100 µM (inactive) | > 100 µM (inactive) | > 100 µM (inactive) | > 100 µM (inactive) | > 100 µM (inactive) |  | > 100 µM (inactive) | > 100 µM (inactive) | > 100 µM (inactive) | > 100 µM (inactive)
COc1ccc(C2SC(=N)Nc3c2c(C)nn3C(=O)c2ccccc2O)cc1 (centres undefined) | 7.38 µM (inactive) | > 10 µM (inactive) | 4.58 | 2.77 µM (inactive) | > 10 µM (inactive) | 0.497 µM (active) | 3.6 µM (inactive) | 1.67 µM (inactive) | 0.455 µM (active) | 0.933 µM (active) | 3.72 µM (inactive) | 1.96 µM (inactive) | 8.09 µM (inactive) | 0.998 µM (active) | 3.81 µM (inactive) | 2.57 µM (inactive) | > 10 µM (inactive) |  | 0.885 µM (active) | 2.58 µM (inactive)
O=C(NCCc1ccccc1)c1c(O)nc2ccccc2c1O | > 100 µM (inactive) | > 100 µM (inactive) | > 100 | > 100 µM (inactive) | > 100 µM (inactive) | > 100 µM (inactive) | > 100 µM (inactive) |  | > 100 µM (inactive) | > 100 µM (inactive) | > 100 µM (inactive) | > 100 µM (inactive) | > 100 µM (inactive) | > 100 µM (inactive) | > 100 µM (inactive) |  | > 100 µM (inactive) | > 100 µM (inactive) | > 100 µM (inactive) | > 100 µM (inactive)
COc1cc(C/N=c2/nc(N(C)C)ss2)cc(OC)c1OC | > 10 µM (inactive) | > 10 µM (inactive) | > 10 | > 10 µM (inactive) | > 10 µM (inactive) | > 10 µM (inactive) | 2.1 µM (inactive) | > 9.1 µM (inactive) | > 10 µM (inactive) | > 10 µM (inactive) | > 10 µM (inactive) | > 10 µM (inactive) | 3.37 µM (inactive) | > 4.99 µM (inactive) | > 10 µM (inactive) |  | > 10 µM (inactive) | > 10 µM (inactive) | > 10 µM (inactive) | 1.8 µM (inactive)
COc1ccc(-c2cc(-c3ccccc3)[nH]c(=S)c2C#N)cc1 | 55.8 µM (inactive) | 28.2 µM (inactive) | 34.7 | 3.85 µM (inactive) | 44.3 µM (inactive) | 26.4 µM (inactive) | 20.7 µM (inactive) | 25.4 µM (inactive) | 20.1 µM (inactive) | 21.8 µM (inactive) | 25.5 µM (inactive) | 11.9 µM (inactive) | 62.1 µM (inactive) | 29.8 µM (inactive) | 19.9 µM (inactive) |  | 40.4 µM (inactive) | 20.6 µM (inactive) | 38.2 µM (inactive) | 46.8 µM (inactive)
CN1C(=O)c2c(c3c4ccccc4n(C4OC(CO)C(O)C(O)C4O)c3c3[nH]c4ccccc4c23)C1=O (centres undefined) | 3.02 µM (inactive) | 2.07 µM (inactive) | 4.82 | 2.93 µM (inactive) | 1.08 µM (active) | 0.9 µM (active) | 1.2 µM (inactive) | 2.34 µM (inactive) | 2.29 µM (inactive) | 2.59 µM (inactive) | 3.1 µM (inactive) | 2.02 µM (inactive) | 3.22 µM (inactive) | 1.42 µM (inactive) | 1.92 µM (inactive) | 2.48 µM (inactive) | 0.849 µM (active) | 2.57 µM (inactive) | 0.541 µM (active) | 
NNC(=O)Nc1cccnc1 | > 100 µM (inactive) | > 100 µM (inactive) | > 100 | > 100 µM (inactive) | > 100 µM (inactive) | > 100 µM (inactive) | > 100 µM (inactive) | > 100 µM (inactive) | > 100 µM (inactive) | > 100 µM (inactive) |  | > 100 µM (inactive) | > 100 µM (inactive) | > 100 µM (inactive) | > 100 µM (inactive) | > 100 µM (inactive) | > 100 µM (inactive) | > 100 µM (inactive) |  | > 100 µM (inactive)
O=C(/C(=N/Nc1cn[nH]c(=O)c1Cl)c1ccccc1)c1ccccc1 | 24 µM (inactive) | 26.9 µM (inactive) | 12.6 | 44.8 µM (inactive) | 24.8 µM (inactive) | 18.9 µM (inactive) | 18.8 µM (inactive) | 46.8 µM (inactive) | 5.11 µM (inactive) | 22.4 µM (inactive) |  | 18 µM (inactive) |  | 36.1 µM (inactive) | 27.5 µM (inactive) | 46 µM (inactive) | 91.6 µM (inactive) | 22.6 µM (inactive) |  | 16.8 µM (inactive)
CN(C)/C=C/c1c2c(nc3ccccc13)C(=O)c1ccccc1C2=O | 1.89 µM (inactive) | 1.93 µM (inactive) | 0.766 | 0.266 µM (active) | 1.95 µM (inactive) | 1.19 µM (inactive) | 0.067 µM (active) | 0.586 µM (active) | 0.357 µM (active) | 0.194 µM (active) | 0.262 µM (active) |  | 3.15 µM (inactive) | 1.63 µM (inactive) | 0.752 µM (active) | 1.12 µM (active) | 1.83 µM (inactive) | 1.82 µM (inactive) | 1.77 µM (inactive) | 0.366 µM (active)
C/C(=N\NC(=O)CC#N)C(CN1CCCCC1)C(c1ccccc1)c1c(O)c2ccccc2oc1=O (centres undefined) | > 100 µM (inactive) | 55.7 µM (inactive) | 45.5 |  | 18.5 µM (inactive) | 77.6 µM (inactive) | 17.4 µM (inactive) | 68.5 µM (inactive) | 53.2 µM (inactive) | 46.2 µM (inactive) |  | 47.5 µM (inactive) | > 100 µM (inactive) | 63.5 µM (inactive) | 58.3 µM (inactive) | 35.7 µM (inactive) | 80.4 µM (inactive) | 33.9 µM (inactive) | > 100 µM (inactive) | 27.2 µM (inactive)
